These results are taken from patent US20100305113A1, “Substituted Imidazopyridazines as Lipid Kinase Inhibitors” (priority 2007, published 2010).

The target in one data set is T1, PI3K gamma (Homo sapiens, UniProt P48736).
T1 construct: His tag (C); made in house; host or cells: construct from Roger Williams lab (MRC LMB); baculovirus (pVL1393); Tn5 (Trichoplusia ni) or TiniPro insect cells
The data set is described as follows: PI3K gamma enzymatic assay (Kinase-Glo luminescence). The data set is classed as biochemical. Particulars: Enzymatic Data. In a few lines:
(§1)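 Kinase-Glo ATP-depletion luminescence with 1 μM ATP and 10 μg/mL phosphatidylinositol in pH 7.5 Tris buffer; 10 nM PI3Kα incubated 60 min, 150 nM PI3Kγ 120 min, at room temperature. IC50 by 4-parameter logistic fit over 8 concentrations.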

Another data set concerns the target T2, PI3K beta (Homo sapiens, UniProt P42338).
T2 construct: for the full-length p110-b subunit are generated and fused by overlapping PCR; p85(iSH2) fusion partner (same polypeptide; see partner chain) (N); Gly linker (N); His tag (C); made in house; host or cells: baculovirus; Tn5 (Trichoplusia ni) or TiniPro insect cells
The data set is described as follows: PI3K beta enzymatic assay (Kinase-Glo luminescence). The data set is classed as biochemical. Particulars: Enzymatic Data. In a few lines:
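Full-length p110β with p85 iSH2 (His-tagged) at 25 nM, 10 μg/mL phosphatidylinositol and 1 μM ATP, in pH 7.5 Tris with 3 mM MgCl2, 60 min at room temperature. Remaining ATP read by Kinase-Glo luminescence; IC50 from 4-parameter logistic fit over 8 concentrations.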

In a further data set the target is T3, PI3K alfa (Homo sapiens, UniProt P42336).
T3 construct: p85(iSH2) fusion partner (same polypeptide; see partner chain) (N); 12x Gly linker (N); His tag (C); made in house; host or cells: baculovirus; Tn5 (Trichoplusia ni) or TiniPro insect cells
T3 sequence (P42336 with tags, fused parts or gaps limits assumed): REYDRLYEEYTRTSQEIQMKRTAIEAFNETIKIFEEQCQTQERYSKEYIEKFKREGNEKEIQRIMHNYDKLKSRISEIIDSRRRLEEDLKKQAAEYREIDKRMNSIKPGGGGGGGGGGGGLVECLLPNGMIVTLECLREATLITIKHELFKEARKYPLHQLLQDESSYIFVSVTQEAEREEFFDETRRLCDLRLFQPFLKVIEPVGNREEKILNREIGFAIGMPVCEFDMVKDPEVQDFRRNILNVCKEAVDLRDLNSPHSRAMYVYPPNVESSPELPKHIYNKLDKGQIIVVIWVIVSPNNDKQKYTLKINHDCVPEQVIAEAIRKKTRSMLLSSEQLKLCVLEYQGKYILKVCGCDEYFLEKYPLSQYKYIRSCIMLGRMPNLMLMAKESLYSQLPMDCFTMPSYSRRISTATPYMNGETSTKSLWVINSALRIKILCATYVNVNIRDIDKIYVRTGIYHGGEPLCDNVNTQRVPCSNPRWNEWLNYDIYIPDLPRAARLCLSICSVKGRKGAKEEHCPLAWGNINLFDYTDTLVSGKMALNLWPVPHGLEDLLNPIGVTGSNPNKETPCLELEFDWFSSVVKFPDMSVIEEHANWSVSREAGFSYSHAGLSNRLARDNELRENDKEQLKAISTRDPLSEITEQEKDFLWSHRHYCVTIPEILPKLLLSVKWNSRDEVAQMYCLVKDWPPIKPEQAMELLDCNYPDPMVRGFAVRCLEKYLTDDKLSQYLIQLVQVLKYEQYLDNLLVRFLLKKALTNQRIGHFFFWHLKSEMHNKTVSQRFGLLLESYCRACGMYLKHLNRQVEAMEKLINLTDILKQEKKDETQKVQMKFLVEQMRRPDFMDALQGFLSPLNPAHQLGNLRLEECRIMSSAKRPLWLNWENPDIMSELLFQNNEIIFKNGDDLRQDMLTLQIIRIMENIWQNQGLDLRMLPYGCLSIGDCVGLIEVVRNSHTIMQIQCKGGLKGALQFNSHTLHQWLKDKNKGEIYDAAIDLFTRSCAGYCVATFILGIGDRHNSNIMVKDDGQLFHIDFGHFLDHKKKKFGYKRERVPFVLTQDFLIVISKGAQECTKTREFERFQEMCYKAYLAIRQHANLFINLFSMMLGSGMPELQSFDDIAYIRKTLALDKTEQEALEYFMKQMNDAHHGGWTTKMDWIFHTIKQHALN
The data set is described as follows: PI3K alfa enzymatic assay (Kinase-Glo luminescence). The settings on record: Enzymatic Data. The data set is classed as biochemical. A digest of the protocol:
as §1

The next data set has as its target T4, PI3K delta (Homo sapiens, UniProt O00329).
T4 construct: for the full-length p110-d subunit are generated and fused by overlapping PCR; p85(iSH2) fusion partner (same polypeptide; see partner chain) (N); Gly linker (N); His tag (C); made in house; host or cells: baculovirus; Tn5 (Trichoplusia ni) or TiniPro insect cells
The data set is described as follows: PI3K delta enzymatic assay (Kinase-Glo luminescence). The data set is classed as biochemical. Particulars: Enzymatic Data. A digest of the protocol: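 10 nM PI3Kδ p85(iSH2)-Gly linker-full-length p110δ His-tagged construct with 10 µg/mL phosphatidylinositol and 1 µM ATP. Buffer: 10 mM Tris pH 7.5, 3 mM MgCl2, 50 mM NaCl, 0.05% CHAPS, 1 mM DTT; 60 min RT. Kinase-Glo luminescence; IC50 from 4-parameter logistic fit over 8 concentrations.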

T1 sequence (P48736 144-1102 limits assumed): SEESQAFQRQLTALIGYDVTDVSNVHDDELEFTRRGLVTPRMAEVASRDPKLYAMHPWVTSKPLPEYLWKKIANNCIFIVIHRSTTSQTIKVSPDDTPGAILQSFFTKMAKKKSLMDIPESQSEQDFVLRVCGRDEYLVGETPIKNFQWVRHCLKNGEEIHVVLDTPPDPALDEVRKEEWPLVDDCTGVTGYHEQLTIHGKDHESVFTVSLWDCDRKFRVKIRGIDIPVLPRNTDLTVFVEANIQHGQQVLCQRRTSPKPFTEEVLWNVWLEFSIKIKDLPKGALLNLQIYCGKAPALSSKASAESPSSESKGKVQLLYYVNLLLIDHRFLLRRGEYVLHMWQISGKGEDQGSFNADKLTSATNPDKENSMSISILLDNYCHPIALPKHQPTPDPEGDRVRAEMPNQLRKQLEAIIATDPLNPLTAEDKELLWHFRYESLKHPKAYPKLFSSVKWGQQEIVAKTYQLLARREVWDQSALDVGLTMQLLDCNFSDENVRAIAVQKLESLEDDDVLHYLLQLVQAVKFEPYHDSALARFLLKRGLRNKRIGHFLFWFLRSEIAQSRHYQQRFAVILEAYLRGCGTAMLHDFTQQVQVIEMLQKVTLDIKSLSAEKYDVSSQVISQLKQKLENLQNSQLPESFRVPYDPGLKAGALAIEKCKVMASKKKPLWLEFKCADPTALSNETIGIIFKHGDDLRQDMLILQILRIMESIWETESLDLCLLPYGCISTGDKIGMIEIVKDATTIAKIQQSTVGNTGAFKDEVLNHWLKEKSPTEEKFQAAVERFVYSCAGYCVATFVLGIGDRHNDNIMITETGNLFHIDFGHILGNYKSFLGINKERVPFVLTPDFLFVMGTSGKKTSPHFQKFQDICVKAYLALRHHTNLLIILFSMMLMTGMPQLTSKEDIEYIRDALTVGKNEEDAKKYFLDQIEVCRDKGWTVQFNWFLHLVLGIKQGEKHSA
T4 sequence (O00329 with tags, fused parts or gaps limits assumed): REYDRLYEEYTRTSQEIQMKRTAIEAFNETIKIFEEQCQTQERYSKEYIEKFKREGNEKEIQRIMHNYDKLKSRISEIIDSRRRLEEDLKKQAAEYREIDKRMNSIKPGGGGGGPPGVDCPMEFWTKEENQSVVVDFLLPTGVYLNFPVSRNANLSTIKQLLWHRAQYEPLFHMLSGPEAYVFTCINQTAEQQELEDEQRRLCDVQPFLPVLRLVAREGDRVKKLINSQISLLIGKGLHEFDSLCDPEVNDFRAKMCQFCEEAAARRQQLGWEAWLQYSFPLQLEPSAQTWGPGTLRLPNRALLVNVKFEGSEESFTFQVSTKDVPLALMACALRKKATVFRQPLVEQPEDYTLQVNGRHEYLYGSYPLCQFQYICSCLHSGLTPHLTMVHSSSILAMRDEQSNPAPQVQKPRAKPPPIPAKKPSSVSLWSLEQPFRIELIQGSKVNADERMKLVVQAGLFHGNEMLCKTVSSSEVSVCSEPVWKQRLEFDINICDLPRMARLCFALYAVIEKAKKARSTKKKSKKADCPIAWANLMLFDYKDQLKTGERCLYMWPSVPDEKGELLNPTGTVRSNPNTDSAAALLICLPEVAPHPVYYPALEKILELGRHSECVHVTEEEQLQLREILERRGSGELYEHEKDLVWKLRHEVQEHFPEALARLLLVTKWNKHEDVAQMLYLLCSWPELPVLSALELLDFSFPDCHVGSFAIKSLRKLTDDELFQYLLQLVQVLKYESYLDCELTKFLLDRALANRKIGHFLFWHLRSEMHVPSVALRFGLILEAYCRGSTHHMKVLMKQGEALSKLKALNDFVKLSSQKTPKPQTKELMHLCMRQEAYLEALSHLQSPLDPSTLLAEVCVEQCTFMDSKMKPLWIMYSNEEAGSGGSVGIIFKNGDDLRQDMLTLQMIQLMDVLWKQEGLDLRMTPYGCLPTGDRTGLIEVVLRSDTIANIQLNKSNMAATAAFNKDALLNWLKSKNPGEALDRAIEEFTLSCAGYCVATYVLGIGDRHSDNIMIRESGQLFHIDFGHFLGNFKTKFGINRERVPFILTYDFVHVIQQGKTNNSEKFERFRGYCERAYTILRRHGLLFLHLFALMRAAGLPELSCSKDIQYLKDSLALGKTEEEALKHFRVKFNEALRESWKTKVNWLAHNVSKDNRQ
T2 sequence (P42338 with tags, fused parts or gaps limits assumed): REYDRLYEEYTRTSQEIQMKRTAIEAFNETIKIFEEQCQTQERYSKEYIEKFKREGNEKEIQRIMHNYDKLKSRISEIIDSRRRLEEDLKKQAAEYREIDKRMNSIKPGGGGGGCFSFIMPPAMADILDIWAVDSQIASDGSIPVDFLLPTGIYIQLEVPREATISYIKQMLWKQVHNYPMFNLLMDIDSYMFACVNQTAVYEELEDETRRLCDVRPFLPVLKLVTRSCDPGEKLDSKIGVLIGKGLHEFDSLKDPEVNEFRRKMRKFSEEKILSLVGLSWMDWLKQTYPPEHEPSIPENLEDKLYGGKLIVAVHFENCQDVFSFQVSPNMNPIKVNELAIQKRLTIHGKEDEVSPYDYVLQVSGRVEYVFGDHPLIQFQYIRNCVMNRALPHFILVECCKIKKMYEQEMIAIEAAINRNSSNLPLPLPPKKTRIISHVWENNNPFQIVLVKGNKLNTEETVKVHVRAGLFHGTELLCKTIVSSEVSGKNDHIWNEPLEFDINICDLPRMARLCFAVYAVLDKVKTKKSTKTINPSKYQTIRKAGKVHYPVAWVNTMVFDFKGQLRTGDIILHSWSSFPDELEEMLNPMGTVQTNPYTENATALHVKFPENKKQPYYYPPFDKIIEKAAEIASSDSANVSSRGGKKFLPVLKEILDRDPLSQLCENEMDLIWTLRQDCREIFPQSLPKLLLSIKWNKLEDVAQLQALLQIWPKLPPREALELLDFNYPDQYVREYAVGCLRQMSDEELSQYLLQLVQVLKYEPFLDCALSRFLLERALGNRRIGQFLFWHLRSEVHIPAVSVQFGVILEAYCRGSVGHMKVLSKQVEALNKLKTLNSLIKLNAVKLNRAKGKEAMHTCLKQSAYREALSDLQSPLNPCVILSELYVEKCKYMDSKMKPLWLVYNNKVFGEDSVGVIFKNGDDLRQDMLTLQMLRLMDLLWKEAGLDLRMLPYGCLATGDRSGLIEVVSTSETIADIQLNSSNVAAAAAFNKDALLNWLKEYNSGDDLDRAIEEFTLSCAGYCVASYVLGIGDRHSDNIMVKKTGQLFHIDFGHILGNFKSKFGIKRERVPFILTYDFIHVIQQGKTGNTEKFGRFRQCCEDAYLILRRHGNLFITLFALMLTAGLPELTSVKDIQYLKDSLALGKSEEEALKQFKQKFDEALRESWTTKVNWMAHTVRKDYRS

`COC(=O)NC1(COc2ccc(-c3ccc4nc(C)c(-c5cnc(N)c(C(F)(F)F)c5)n4n3)cc2)COC1` [Example 115, (3-{4-[3-(6-Amino-5-trifluoromethyl-pyridin-3-yl)-2-methyl-imidazo[1,2-b]pyridazin-6-yl]-phenoxymethyl}-oxetan-3-yl)-carbamic acid methyl ester] showed a melting point of 202 to 204 °C. Further, on PI3K gamma, the IC50 turned out to be 3160 nM. Besides, the IC50 on PI3K beta is above 9.1 µM. At PI3K alfa, the IC50 is 295 nM. At PI3K delta, the IC50 was determined as 1970 nM.

`Cc1nc2ccc(-c3ccc(OCC4(N)COC4)cc3)nn2c1-c1cnc(N)c(C(F)(F)F)c1` [Example 111, 5-{6-[4-(3-Amino-oxetan-3-ylmethoxy)-phenyl]-2-methyl-imidazo[1,2-b]pyridazin-3-yl}-3-trifluoromethyl-pyridin-2-ylamine] had a melting point of 198 to 200 °C. Also, on PI3K gamma, the IC50 was 1190 nM. For the same molecule, the IC50 at PI3K beta stood at 2.39 µM. Moreover, at PI3K alfa, the IC50 was 131 nM. Also, at PI3K delta, the 50% inhibitory concentration (IC50) came to 895 nM.

`Cc1nc2ccc(-c3ccc(OCC4(NC(=O)C(F)(F)F)COC4)cc3)nn2c1-c1cnc(N)c(C(F)(F)F)c1` [Example 116, N-(3-{4-[3-(6-Amino-5-trifluoromethyl-pyridin-3-yl)-2-methyl-imidazo[1,2-b]pyridazin-6-yl]-phenoxymethyl}-oxetan-3-yl)-2,2,2-trifluoro-acetamide] gave a melting point of 214 to 216 °C. For the same molecule, at PI3K gamma, the IC50 came to 4660 nM. In addition, the IC50 at PI3K beta came to 4.24 µM. For the same molecule, at PI3K alfa, the IC50 amounted to 59 nM. For the same molecule, the IC50 on PI3K delta came out at 937 nM.

Turning to `COc1cc(-c2ccc3nc(C)c(-c4cnc(N)c(C(F)(F)F)c4)n3n2)ccc1OCCNC(=O)c1ccc(N2CCOCC2)cc1` [Example 94, N-(2-{4-[3-(6-Amino-5-trifluoromethyl-pyridin-3-yl)-2-methyl-imidazo[1,2-b]pyridazin-6-yl]-2-methoxy-phenoxy}-ethyl)-4-morpholin-4-yl-benzamide], the IC50 on PI3K gamma was above 9100 nM; on PI3K beta, above 9.1 µM; on PI3K alfa, 367 nM; at PI3K delta it was 6780 nM.

Turning to `COc1cc(-c2ccc3nc(C)c(-c4cnc(N)c(C(F)(F)F)c4)n3n2)ccc1OCCN(CC(=O)N(C)C)CC(=O)N(C)C` [Example 103, 2-[(2-{4-[3-(6-Amino-5-trifluoromethyl-pyridin-3-yl)-2-methyl-imidazol[1,2-b]pyridazin-6-yl]-2-methoxy-phenoxy}-ethyl)-dimethylcarbamoylmethyl-amino]-N,N-dimethyl-acetamide], the IC50 turned out to be 662 nM on PI3K gamma, 1.83 µM at PI3K beta, 15 nM at PI3K alfa and 362 nM on PI3K delta.

As to `COc1cc(-c2ccc3nc(C)c(-c4cnc(N)c(C(F)(F)F)c4)n3n2)ccc1OCCN1CCNC1=O` [Example 104, 1-(2-{4-[3-(6-Amino-5-trifluoromethyl-pyridin-3-yl)-2-methyl-imidazo[1,2-b]pyridazin-6-yl]-2-methoxy-phenoxy}-ethyl)-imidazolidin-2-one], the IC50 at PI3K gamma was 477 nM; on PI3K beta, 2.08 µM; on PI3K alfa, 31 nM; on PI3K delta, 255 nM.

Turning to `COc1ccc(-c2ccc3nc(C)c(-c4ccnc(N(C)CCN(C)C)n4)n3n2)cc1OC` [Example 88, N-{4-[6-(3,4-Dimethoxy-phenyl)-2-methyl-imidazo[1,2-b]pyridazin-3-yl]-pyrimidin-2-yl}-N,N′,N′-trimethyl-ethane-1,2-diamine], the IC50 came out at 98 nM on PI3K gamma, 3.03 µM on PI3K beta, 51 nM on PI3K alfa and 41 nM at PI3K delta.

For `COc1ccc(-c2ccc3nc(C)c(-c4ncccc4C)n3n2)cc1OC` [Example 16, 6-(3,4-Dimethoxy-phenyl)-2-methyl-3-(3-methyl-pyridin-2-yl)-imidazo[1,2-b]pyridazine], the IC50 was above 25000 nM at PI3K gamma, above 25 µM at PI3K beta, above 25000 nM at PI3K alfa and above 25000 nM at PI3K delta.

In the case of `COc1ccc(-c2ccc3nc(C)c(-c4ccc(O)nc4)n3n2)cc1OC` [Example 8, 5-[6-(3,4-dimethoxy-phenyl)-2-methyl-imidazo[1,2-b]pyridazin-3-yl]-pyridin-2-ol], the IC50 at PI3K gamma is 303 nM; at PI3K beta, 1.17 µM; on PI3K alfa it was 42 nM; on PI3K delta, 456 nM.

With `COc1cc(-c2ccc3nc(C)c(-c4cnc(N)c(C(F)(F)F)c4)n3n2)ccc1OCCNC(=O)c1cccc(C#N)c1` [Example 27], the IC50 at PI3K gamma was 2280 nM; at PI3K beta it was above 9.1 µM; at PI3K alfa it was 456 nM; at PI3K delta it was above 9100 nM.

In the case of `Cc1nc2ccc(-c3ccc(OCC4(NC(=O)C5CC5)COC4)cc3)nn2c1-c1cnc(N)c(C(F)(F)F)c1` [Example 110, Cyclopropanecarboxylic acid (3-{4-[3-(6-amino-5-trifluoromethyl-pyridin-3-yl)-2-methyl-imidazo[1,2-b]pyridazin-6-yl]-phenoxymethyl}-oxetan-3-yl)-amide], the melting point is 191 to 193 °C. The IC50 at PI3K gamma amounted to 2080 nM. Further, the IC50 on PI3K beta was determined as 8.19 µM. Also, the IC50 on PI3K alfa amounted to 126 nM. For the same molecule, at PI3K delta, the IC50 was 1590 nM.

Take `COc1ccc(-c2ccc3nc(C)c(-c4cnccn4)n3n2)cc1OC` [Example 17, 6-(3,4-Dimethoxy-phenyl)-2-methyl-3-pyrazin-2-yl-imidazo[1,2-b]pyridazine]: the IC50 worked out at 797 nM on PI3K gamma, 4.48 µM on PI3K beta, 181 nM on PI3K alfa and 2020 nM at PI3K delta.

On to `COc1cc(-c2ccc3nc(C)c(-c4cnc(N)c(C(F)(F)F)c4)n3n2)ccc1OCCNC(=O)Nc1cc(OC)c(OC)c(OC)c1` [Example 61], for which the IC50 was 194 nM at PI3K gamma, above 9.1 µM at PI3K beta, 242 nM on PI3K alfa and 2710 nM at PI3K delta.

`COc1cc(-c2ccc3nc(C)c(-c4ccc(S(C)(=O)=O)cc4)n3n2)ccc1OC1CCNCC1` [Example 101, 3-(4-Methanesulfonyl-phenyl)-6-[3-methoxy-4-(piperidin-4-yloxy)-phenyl]-2-methyl-imidazo[1,2-b]pyridazine]: the IC50 on PI3K gamma is above 9100 nM; at PI3K beta it was above 9.1 µM; on PI3K alfa, 1040 nM; at PI3K delta it was 1180 nM.

As for `COc1ccc(C(=O)NCCOc2ccc(-c3ccc4nc(C)c(-c5cnc(N)c(C(F)(F)F)c5)n4n3)cc2OC)cc1OC` [Example 37], the IC50 on PI3K gamma is 2300 nM; on PI3K beta, above 9.1 µM; on PI3K alfa, 233 nM; at PI3K delta it was above 9100 nM.

With `COc1cc(-c2ccc3nc(C)c(-c4cnc(N)c(C(F)(F)F)c4)n3n2)ccc1OCCCN` [Example 25, 5-{6-[4-(3-Amino-propoxy)-3-methoxy-phenyl]-2-methyl-imidazo[1,2-b]pyridazin-3-yl}-3-trifluoromethyl-pyridin-2-ylamine], the IC50 at PI3K gamma was found to be 507 nM; at PI3K beta it was 0.193 µM; at PI3K alfa, 15 nM; at PI3K delta, 24 nM.

Consider `COc1ccc(-c2ccc3nc(C)c(-c4ccc(F)nc4)n3n2)cc1OC` [Example 1, 6-(3,4-Dimethoxy-phenyl)-3-(6-fluoro-pyridin-3-yl)-2-methyl-imidazo[1,2-b]pyridazine], for which the IC50 at PI3K gamma worked out at 241 nM; at PI3K beta, 1.68 µM; at PI3K alfa it was 206 nM; on PI3K delta it was 1350 nM.

As for `COc1ccc(-c2ccc3nc(C)c(-c4ccn(S(=O)(=O)c5cccc(C#N)c5)n4)n3n2)cc1OC` [Example 23, 3-{3-[6-(3,4-Dimethoxy-phenyl)-2-methyl-imidazo[1,2-b]pyridazin-3-yl]-pyrazole-1-sulfonyl}-benzonitrile], the IC50 on PI3K gamma is 511 nM; at PI3K beta, above 9.1 µM; at PI3K alfa it was 136 nM; at PI3K delta, 124 nM.
